The values that follow come from ChEMBL document CHEMBL5385930, “Synthesis, Structure-Activity Relationship Study, Bioactivity, and Nephrotoxicity Evaluation of the Proposed Structure of the Cyclic Lipodepsipeptide Brevicidine B” (J Nat Prod, 2024).

Values after ≈ are worked out from the molar mass of the structure shown.

The subject of series [1] is Escherichia coli. The series can be described thus: Antibacterial activity against Escherichia coli ATCC 25922 assessed as reduction in bacterial growth by microbroth dilution assay. It counts as functional.
For series [2], the system named is Acinetobacter baumannii. The series can be described thus: Antibacterial activity against Acinetobacter baumannii ATCC 19606 assessed as reduction in bacterial growth by microbroth dilution assay. It counts as functional.
A further series has as its system Pseudomonas aeruginosa. The series can be described thus: Antibacterial activity against Pseudomonas aeruginosa ATCC 27853 assessed as reduction in bacterial growth by microbroth dilution assay. It counts as functional.
The test system of series [3] is Klebsiella pneumoniae. Briefly: Antibacterial activity against Klebsiella pneumoniae ATCC 33495 assessed as reduction in bacterial growth by microbroth dilution assay. It counts as functional. A general note: Dilution methods test growth across graded concentrations, often in twofold steps.
Series [4] concerns Klebsiella pneumoniae. The series can be described thus: Antibacterial activity against Klebsiella pneumoniae ATCC 700603 assessed as reduction in bacterial growth by microbroth dilution assay. It is filed as functional.
The subject of series [5] is Escherichia coli. Briefly: Antibacterial activity against multidrug resistant Escherichia coli MS834 harbouring mcr-1 assessed as reduction in bacterial growth by microbroth dilution assay. It is filed as functional.
Series [6] has as its system Klebsiella pneumoniae. The series can be described thus: Antibacterial activity against pandrug-resistant Klebsiella pneumoniae MS6671 assessed as reduction in bacterial growth by microbroth dilution assay. It is filed as functional.
Series [7] concerns Acinetobacter baumannii. Briefly: Antibacterial activity against multidrug resistant Acinetobacter baumannii AB5075 assessed as reduction in bacterial growth by microbroth dilution assay. It is filed as functional.
Another series deals with Enterococcus faecalis. The series can be described thus: Antibacterial activity against vancomycin resistant Enterococcus faecalis V583 assessed as reduction in bacterial growth by microbroth dilution assay. It is filed as functional.
For series [8], the system named is Staphylococcus aureus. Briefly: Antibacterial activity against Staphylococcus aureus ATCC 25923 assessed as reduction in bacterial growth by microbroth dilution assay. It is filed as functional.
The test system of series [9] is Staphylococcus aureus. Briefly: Antibacterial activity against methicillin-resistant Staphylococcus aureus […] assessed as reduction in bacterial growth by microbroth dilution assay. It counts as functional.
Series [10] relates to Staphylococcus aureus. The series can be described thus: Antibacterial activity against methicillin-resistant Staphylococcus aureus NCTC1044 assessed as reduction in bacterial growth by microbroth dilution assay. It is filed as functional.
The subject of series [11] is Staphylococcus aureus. The series can be described thus: Antibacterial activity against methicillin-resistant Staphylococcus aureus EMRSA-15 assessed as reduction in bacterial growth by microbroth dilution assay. It counts as functional.
In series [12] the test system is Staphylococcus aureus. Briefly: Antibacterial activity against methicillin-resistant Staphylococcus aureus RA120 assessed as reduction in bacterial growth by microbroth dilution assay. It counts as functional.
A short description of series [13]: Nephrotoxicity in human Kidney organoid assessed as deterioration of renal tubule measured after 48 hrs by bright field imaging analysis. It counts as toxicity, tissue-based. To be noted: dose 100-1000 µM.
Series [14] can be described thus: Nephrotoxicity in human Kidney organoid assessed as at 300 uM measured after 48 hrs by bright field imaging analysis. It is filed as toxicity, tissue-based.
Series [15] can be described thus: Nephrotoxicity in human Kidney organoid assessed as at 100 uM measured after 48 hrs by bright field imaging analysis. It is filed as toxicity, tissue-based.

In the case of `CCC(C)CCC(=O)N[C@H](CC(N)=O)C(=O)N[C@H](Cc1ccccc1)C(=O)N[C@H](Cc1c[nH]c2ccccc12)C(=O)N[C@H](CCCN)C(=O)N[C@@H](CCCN)C(=O)NCC(=O)N[C@H](CCCN)C(=O)N[C@@H](Cc1c[nH]c2ccccc12)C(=O)N[C@@H]1C(=O)N[C@@H]([C@@H](C)CC)C(=O)NCC(=O)N[C@@H](CO)C(=O)O[C@@H]1C` (some centres not stated), the MIC (commonly the lowest concentration that inhibits growth of the organism) came to 4 µg/mL (≈ 2.66 µM) in the series on Escherichia coli [1]; 16 µg/mL (≈ 10.6 µM) in the series on Acinetobacter baumannii [2]; 8 µg/mL (≈ 5.32 µM) with Pseudomonas aeruginosa; 4 µg/mL (≈ 2.66 µM) with Klebsiella pneumoniae [3]; 16 µg/mL (≈ 10.6 µM) in the series with Klebsiella pneumoniae [4]; 8 µg/mL (≈ 5.32 µM) in the series with Escherichia coli [5]. Further, the MIC with Klebsiella pneumoniae [6] is 32 µg/mL (≈ 21.3 µM); in the series on Acinetobacter baumannii [7], 16 µg/mL (≈ 10.6 µM); in the series with Enterococcus faecalis it was more than 32 µg/mL; in the series with Staphylococcus aureus [8], more than 32 µg/mL; in the series on Staphylococcus aureus [9], more than 32 µg/mL; with Staphylococcus aureus [10], more than 32 µg/mL. In addition, the MIC with Staphylococcus aureus [11] and in the series on Staphylococcus aureus [12] was more than 32 µg/mL each time. Besides, the Activity result in series [13] is listed as “Dose-Dependent Effect”; in [14], “Toxic”; in [15] it was “Non-Toxic”.
